Measurements published in EP0326331B1, “Substituted quinolines and cinnolines” (Dow AgroSciences LLC, priority 1988, dated 1989).

Assays:
Assay type in all cases: in vivo
[1] = test system: Twospotted spider mites (Tetranychus urticae Koch); assay: Mite/insect screen, SM; details: Tetranychus urticae, foliar, percent mortality, foliar spray on squash, read-out: SM RESULTS %; for mortality at 200 ppm: rate 200 ppm; for mortality at 400 ppm: rate 400 ppm
In short: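 Read-out: percent mortality after standard exposure periods. Test solutions were water dilutions of compound dissolved in acetone/alcohol (50:50) with emulsifier blends; leaves were sprayed to runoff on both surfaces and air-dried for one hour before exposure.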

[2] = test system: Pseudoperonospora cubensis (downy mildew); assay: Test 1 greenhouse foliar spray screen, downy mildew on squash; details: Pseudoperonospora cubensis, foliar, Test 1, foliar spray on squash; disease control rating at 400 ppm / 100 ppm; read-out: DOWN MDEW
corn rootworm = assay: Mite/insect screen, CRW; details: percent mortality, read-out: CRW RESULTS %; for mortality at 12 ppm: CRW rate 12.00 ppm; for mortality at 24 ppm: CRW rate 24.00 ppm
In short: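 Corn rootworm mortality (%) was evaluated following standard exposure times. Test material was emulsified by dissolution in acetone/alcohol (1:1) containing sulfonate/nonionic emulsifier blends TOXIMUL R (23 g/L) and TOXIMUL S (13 g/L), and water-diluted to the indicated doses.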

[3] = test system: Erysiphe graminis tritici (powdery mildew); assay: Test 1 greenhouse foliar spray screen, powdery mildew on wheat; details: Blumeria graminis, foliar, Test 1, foliar spray on wheat; disease control rating at 400 ppm / 100 ppm; read-out: POWD MDEW
[4] = test system: southern armyworm (Spodopetra eridania Cramer); assay: Mite/insect screen, SAW; details: Spodoptera eridania, foliar, percent mortality, foliar spray on squash, read-out: SAW RESULTS %; for mortality at 200 ppm: rate 200 ppm; for mortality at 400 ppm: rate 400 ppm
In short: (§1)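 Percent mortality was scored after standard exposure periods, following spraying of leaves to runoff (both surfaces, 10 psi, 1 h drying) with water dilutions of compound in emulsifier-containing acetone/alcohol (50:50). Armyworms received excised treated leaves in dishes.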

[5] = test system: Botrytis cinerea (gray mold); assay: Test 1 greenhouse foliar spray screen, gray mold on grape berries; details: Botrytis cinerea, foliar; Test 1, spray on grape berries; disease control rating at 400 ppm / 100 ppm
[6] = test system: Puccinia recondita tritici (leaf rust); assay: Test 1 greenhouse foliar spray screen, leaf rust on wheat; details: Puccinia recondita, foliar, Test 1, foliar spray on wheat; disease control rating at 400 ppm / 100 ppm
[7] = test system: Pyricularia oryzae (rice blast); assay: whole plant or invertebrate; details: Pyricularia oryzae, foliar, read-out: RICE BLAST, Test 1, foliar spray on rice; disease control rating at 400 ppm / 100 ppm
[8] = test system: melon aphids (Aphis gossypii Glover); assay: Mite/insect screen, MA; details: Aphis gossypii, foliar, percent mortality, foliar spray on squash, read-out: MA RESULTS %; for mortality at 200 ppm: rate 200 ppm; for mortality at 400 ppm: rate 400 ppm
In short: as §1

| SMILES | mortality at 200 ppm [1] | mortality at 400 ppm [1] | pest or weed control at 400 ppm [2] | mortality at 12 ppm (corn rootworm) | mortality at 24 ppm (corn rootworm) | pest or weed control at 400 ppm [3] | mortality at 200 ppm [4] | mortality at 400 ppm [4] | pest or weed control at 400 ppm [5] | pest or weed control at 400 ppm [6] | pest or weed control at 400 ppm [7] | mortality at 200 ppm [8] | mortality at 400 ppm [8] |
| --- | --- | --- | --- | --- | --- | --- | --- | --- | --- | --- | --- | --- | --- |
| COc1ccc2nc(C)cc(NCCc3cccc(Oc4ccccc4)c3)c2c1 [Example 290, 6-methoxy-2-methyl-N-[2-(3-phenoxyphenyl)ethyl]-4-quinolinamine] | 80% | 0% | 90 to 100% | 0% | 0% | 0 to 19% | 0% | 0% | 0 to 19% | 20 to 89% | 90 to 100% | 80% | 0% |
| Fc1cccc2c(NCCc3ccc(OCc4ccccc4)cc3)ccnc12 [Example 291, 8-fluoro-N-[2-[4-(phenylmethoxy)phenyl]ethyl]-4-quinolinamine] | 0% | 0% | 90 to 100% | 0% | 0% | 90 to 100% | 0% | 0% | 0 to 19% | 90 to 100% | 90 to 100% | 100% | 0% |
| Fc1ccc2c(OCCOc3ccc(Br)cc3)ccnc2c1 [Example 292, 7-fluoro-4-[2-(4-bromophenoxy)ethoxy]quinoline] | 0% | 0% | 0 to 19% | 0% | 0% | 0 to 19% | 0% | 0% | 0 to 19% | 0 to 19% | 0 to 19% | 30% | 0% |
| Oc1ccc(CCNc2ccnc3c(F)cccc23)cc1 [Example 293, N-[2-(4-hydroxyphenyl)ethyl]-8-fluoro-4-quinoline] | 0% | 0% | 0 to 19% | 0% | 0% | 0 to 19% | 0% | 0% | 0 to 19% | 90 to 100% | 0 to 19% | 0% | 0% |
| Fc1cccc2c(OCCCc3cccc(C(F)(F)F)c3)ccnc12 [Example 294, 8-fluoro-4-[3-[3-(trifluoromethyl)phenyl]propoxy]quinoline] | 0% | 0% | 0 to 19% | 0% | 0% | 0 to 19% | 0% | 0% | 0 to 19% | 0 to 19% | 0 to 19% | 0% | 0% |
| Fc1cccc2c(OC3CCCCC3c3ccccc3)ccnc12 (stereo not drawn) [Example 295, 8-fluoro-4-(2-phenylcyclohexyloxy)quinoline] | 0% | 0% | 90 to 100% | 0% | 0% | 20 to 89% | 0% | 0% | 0 to 19% | 20 to 89% | 20 to 89% | 0% | 0% |
